Measured values reported in patent US10800741B2 (ANCUREALL PHARMACEUTICAL (SHANGHAI) CO., LTD., priority 2017, dated 2020).

Legend:
Format in all cases: cell-based, Human
H1581 (FGFR1 amp) = assay: In vitro growth inhibition of H1581 tumor cells (MTT/CCK8); conditions: Homo sapiens, NCI-H1581; in vitro growth inhibition (or induction of apoptosis), cells cultured 3 to 5 days, MTT (CCK8); read-out: IC50 H1581 (FGFR1 amp)
KCL-22 (BCR-ABL) = assay: In vitro growth inhibition of KCL-22 tumor cells (MTT/CCK8); conditions: Homo sapiens, KCL-22; in vitro growth inhibition (or induction of apoptosis), cells cultured 3 to 5 days, MTT (CCK8); read-out: IC50 KCL-22 (BCR-ABL)
Text: (§1) Tumor cell lines are an effective model for studying in vitro tumor growth inhibition. In the present invention, a representative tumor cell line was selected to determine the cell growth inhibition activity of the present compound. All cell lines used were from ATCC, DSMZ, and cell banks of the Chinese Academy of Sciences. Cell culture conditions and methods were in accordance with the requirements of each cell line. Cells were subcultured in vitro for no more than 3 generations each time, and as required, single-clone purification and identification of cell lines could be carried out.
(§2) The cell culture media used were RPMI1640 (Gibco), DMEM (Gibco), MEM (Gibco), L15 (Gibco), IMDM (Gibco), McCOY'S5A, and William's (Gibco). 5-20% fetal bovine serum (Gibco), 1% double antibiotic, 2 mM glutamine, or 1 mM sodium pyruvate were added. The names, species, major gene characteristics, culture media and cell sources of the cell lines used are shown in table 1, wherein “amp” refers to gene amplification. “+++” refers to gene overexpression. The main genetic characteristics of cells were obtained from the COSMIC Cell Lines Project and related research papers, respectively.
(§3) Adherent cells were digested with 0.25% trypsin-EDTA (Gibco). Suspension culture cells were collected by centrifugation (1700 rpm, 3 minutes). The supernatant was discarded and the cells were counted. According to each cell growth cycle, different concentrations of cells were prepared (5˜10×10^4 cells per ml), and inoculated to 96-well plates (Corning), with 100 μl per well, and incubated overnight at 37° C., 5% CO2. The next day, the test compound was added to the cultured cells (2 wells in parallel). The final concentration of the solvent was less than 1/1,000. The cells were further cultured for 3 to 5 days and assayed by MTT.
(§4) The compound was stored at a concentration of 10 mM at −20° C. and diluted to 2- or 10-fold series prior to use. BGJ398 and AC220 were synthesized according to the methods of WO2006420A1 and US2007232604A1, respectively.
(§5) The adherent cells were taken out from the cell culture medium, and immediately added to a freshly prepared complete medium containing 10% CCK8 (5% FBS), 100 ul per hole. The suspended cells were directly added to a CCK8 reagent until reaching a final concentration of 10% and cultured for 1 to 4 hours.
(§6) T=optical density of drug-treated cell wells−optical density of blank control wells; T0=optical density of cell wells before drug treatment−optical density of blank control wells; C=optical density of solvent control wells−optical density of blank control wells. […] The experiments were repeated 1 to 3 times and a statistical analysis of data was conducted.

MOLM-13 (FLT3-ITD) = assay: In vitro growth inhibition of MOLM-13 tumor cells (MTT/CCK8); conditions: Homo sapiens, MOLM-13; in vitro growth inhibition (or induction of apoptosis), cells cultured 3 to 5 days, MTT (CCK8); read-out: IC50 MOLM-13 (FLT3-ITD)
H1703 (PDGFRa amp) = assay: In vitro growth inhibition of H1703 tumor cells (MTT/CCK8); conditions: Homo sapiens, NCI-H1703; in vitro growth inhibition (or induction of apoptosis), cells cultured 3 to 5 days, MTT (CCK8); read-out: IC50 H1703 (PDGFRa amp)
Text: as §1, §2, §3, §4, §5, §6

Kasumi-1 (KIT N822K) = assay: In vitro growth inhibition of Kasumi-1 tumor cells (MTT/CCK8); conditions: Homo sapiens, Kasumi 1; in vitro growth inhibition (or induction of apoptosis), cells cultured 3 to 5 days, MTT (CCK8); read-out: IC50 Kasumi-1 (KIT N822K)
Text: as §1, §2, §3, §4, §5, §6

Karpas 299 (NPM-ALK) = assay: In vitro growth inhibition of Karpas 299 tumor cells (MTT/CCK8); conditions: Homo sapiens, KARPAS-299; in vitro growth inhibition (or induction of apoptosis), cells cultured 3 to 5 days, MTT (CCK8); read-out: IC50 Karpas 299 (NPM-ALK)
Text: as §1, §2, §3, §4, §5, §6

Hep3B2 (FGFR3/4+++) = assay: In vitro growth inhibition of Hep3B2 tumor cells (MTT/CCK8); conditions: Homo sapiens, Hep3B; in vitro growth inhibition (or induction of apoptosis), cells cultured 3 to 5 days, MTT (CCK8); read-out: IC50 Hep3B2 (FGFR3/4+++)
Text: as §1, §2, §3, §4, §5, §6

KATO III (FGFR2 amp) = assay: In vitro growth inhibition of KATO III tumor cells (MTT/CCK8); conditions: Homo sapiens, KATO III; in vitro growth inhibition (or induction of apoptosis), cells cultured 3 to 5 days, MTT (CCK8); read-out: IC50 KATO III (FGFR2 amp)

| SMILES | IC50 (H1581 (FGFR1 amp)) | IC50 (KCL-22 (BCR-ABL)) | IC50 (MOLM-13 (FLT3-ITD)) | IC50 (H1703 (PDGFRa amp)) | IC50 (Kasumi-1 (KIT N822K)) | IC50 (Karpas 299 (NPM-ALK)) | IC50 (Hep3B2 (FGFR3/4+++)) | IC50 (KATO III (FGFR2 amp)) |
| --- | --- | --- | --- | --- | --- | --- | --- | --- |
| COc1cc2nccc(Oc3ccc(NC(=O)Nc4cc(C(C)(C)C)nn4C)c(Cl)c3)c2cc1C(N)=O [Compound 26, 4-{4-[3-(5-tert-butyl-2-methyl-2H-pyrazol-3-yl)-ureido]-3-chloro-phenoxy}-7-methoxyquinolin-6-carboxamide] | 9.78 nM | 5.16 nM | 1.35 nM | 8.2 nM | 16.9 nM | 524 nM | 10.9 nM | 0.07 nM |
| CCn1nc(C(C)(C)C)cc1NC(=O)Nc1ccc(Oc2ccnc3cc(OC)c(C(N)=O)cc23)cc1Cl [Compound 27, 4-{4-[3-(5-tert-butyl-2-ethyl-2H-pyrazol-3-yl)-ureido]-3-chloro-phenoxy}-7-methoxyquinolin-6-carboxamide] | 9.03 nM | 9.23 nM | 3.92 nM | 9.2 nM | 8.44 nM | 351 nM | 11.6 nM | 0.12 nM |
| C=CC(=O)n1nc(C(C)(C)C)cc1NC(=O)Nc1ccc(Oc2ccnc3cc(OC)c(C(N)=O)cc23)cc1Cl [Compound 28, 4-{4-[3-(2-acryloyl-5-tert-butyl-2H-pyrazol-3-yl)-ureido]-3-chloro-phenoxy}-7-methoxyquinolin-6-carboxamide] | 17.4 nM | 25.1 nM | 6.53 nM | 17.1 nM | 32.5 nM | 698 nM | 24.2 nM | 0.73 nM |
| CCC(=O)n1nc(C(C)(C)C)cc1NC(=O)Nc1ccc(Oc2ccnc3cc(OC)c(C(N)=O)cc23)cc1Cl [Compound 29, 4-{4-[3-(5-tert-butyl-2-propanoyl-2H-pyrazol-3-yl)-ureido]-3-chloro-phenoxy}-7-methoxyquinolin-6-carboxamide] | 26.3 nM | 29.4 nM | 11.5 nM | 18 nM | 66.8 nM | 626 nM | 29.4 nM | 1.48 nM |
| COc1cc2nccc(Oc3ccc(NC(=O)Nc4cc(C(C)(C)C)nn4C4CCCC4)c(Cl)c3)c2cc1C(N)=O [Compound 30, 4-{4-[3-(5-tert-butyl-2-cyclopentyl-2H-pyrazol-3-yl)-ureido]-3-chloro-phenoxy}-7-methoxyquinolin-6-carboxamide] | 15.5 nM | 22 nM | 17.8 nM | 16.7 nM | 23.7 nM | 276 nM | 26.1 nM | 1.62 nM |
| COc1cc2nccc(Oc3ccc(NC(=O)Nc4cc(C(C)(C)C)nn4CCN4CCOCC4)c(Cl)c3)c2cc1C(N)=O [Compound 31, 4-(4-{3-[5-tert-butyl-2-(2-morpholin-4-yl-ethyl)-2H-pyrazol-3-yl]-ureido}-3-chloro-phenoxy)-7-methoxyquinolin-6-carboxamide] | 23.4 nM | 51.2 nM | 9.45 nM | 25 nM | 40.4 nM | 465 nM | 32.9 nM | 0.12 nM |
| COc1cc2nccc(Oc3ccc(NC(=O)Nc4cc(C(C)(C)C)nn4CCO)c(Cl)c3)c2cc1C(N)=O [Compound 32, 4-(4-{3-[5-tert-butyl-2-(2-hydroxy-ethyl)-2H-pyrazol-3-yl]-ureido}-3-chloro-phenoxy)-7-methoxyquinolin-6-carboxamide] | 35.8 nM | 163 nM | 17.1 nM | 73.2 nM | 132 nM | 736 nM | 56.6 nM | 0.18 nM |
| COc1cc2nccc(Oc3ccc(NC(=O)Nc4cc(C(C)(C)C)n[nH]4)c(C(F)(F)F)c3)c2cc1C(N)=O [Compound 33, 4-{4-[3-(5-tert-butyl-2H-pyrazol-3-yl)-ureido]-3-trifluoromethyl-phenoxy}-7-methoxyquinolin-6-carboxamide] | 49.8 nM | 25.7 nM | 28.1 nM | 73 nM | 46.4 nM | 632 nM | 130 nM | 0.71 nM |
| COc1cc2nccc(Oc3ccc(NC(=O)Nc4cc(C(C)(C)C)n[nH]4)c(C)c3)c2cc1C(N)=O [Compound 34, 4-{4-[3-(5-tert-butyl-2H-pyrazol-3-yl)-ureido]-3-methyl-phenoxy}-7-methoxyquinolin-6-carboxamide] | 57.5 nM | 98.2 nM | 14.6 nM | 88.1 nM | 135 nM | 641 nM | 96.4 nM | 1.62 nM |
| COc1cc2nc(Cl)cc(Oc3ccc(NC(=O)Nc4cc(C(C)(C)C)nn4C)c(Cl)c3)c2cc1C(N)=O [Compound 39, 4-{4-[3-(5-tert-butyl-2-methyl-2H-pyrazol-3-yl)-ureido]-3-chloro-phenoxy}-2-chloro-7-methoxyquinolin-6-carboxamide] | > 1000 nM | > 2500 nM | > 1000 nM | > 1000 nM | > 1000 nM | > 1000 nM | > 1000 nM | > 1000 nM |
| COc1cc2nccc(Oc3ccc(NC(=O)Nc4cc(C(C)C)n[nH]4)c(Cl)c3)c2cc1C(N)=O [Compound 40, 4-{3-chloro-4-[3-(5-isopropyl-2H-pyrazol-3-yl)-ureido]-phenoxy}-7-methoxyquinolin-6-carboxamide] | 127 nM | 112 nM | 19.6 nM | 93 nM | 106 nM | 721 nM | 446 nM | 2.53 nM |
| COc1cc2nccc(Oc3ccc(NC(=O)Nc4cc(C5CC5)n[nH]4)c(Cl)c3)c2cc1C(N)=O [Compound 41, 4-{3-chloro-4-[3-(5-cyclopropyl-2H-pyrazol-3-yl)-ureido]-phenoxy}-7-methoxyquinolin-6-carboxamide] | 450 nM | 353 nM | 134 nM | 124 nM | 736 nM | > 1000 nM | 514 nM | 40.1 nM |
| CC(C)Oc1cc2nccc(Oc3ccc(NC(=O)Nc4cc(C(C)(C)C)n[nH]4)c(Cl)c3)c2cc1C(N)=O [Compound 43, 4-{4-[3-(5-tert-butyl-2H-pyrazol-3-yl)-ureido]-3-chloro-phenoxy}-7-isopropoxy-quinolin-6-carboxamide] | 38.5 nM | 102 nM | 51.5 nM | 37.2 nM | 149 nM | 558 nM | 64.3 nM | 5.69 nM |
| COCCOc1cc2nccc(Oc3ccc(NC(=O)Nc4cc(C(C)(C)C)nn4C)c(Cl)c3)c2cc1C(N)=O [Compound 44, 4-{4-[3-(5-tert-butyl-2-methyl-2H-pyrazol-3-yl)-ureido]-3-chloro-phenoxy}-7-(2-methoxy-ethoxy)-quinolin-6-carboxamide] | 1.61 nM | 2.21 nM | 3.81 nM | 6.49 nM | 7.94 nM | 298 nM | 11.3 nM | 1.08 nM |
